{"source": "patent US10028960B2", "about": "“Pyrimidine compounds as JAK kinase inhibitors” (THERAVANCE BIOPHARMA R&D IP, LLC, priority 2016, dated 2018)", "key": {"JAK2": {"target": "JAK2 (Homo sapiens (Human), UniProt O60674)", "sequence (O60674 whole entry)": "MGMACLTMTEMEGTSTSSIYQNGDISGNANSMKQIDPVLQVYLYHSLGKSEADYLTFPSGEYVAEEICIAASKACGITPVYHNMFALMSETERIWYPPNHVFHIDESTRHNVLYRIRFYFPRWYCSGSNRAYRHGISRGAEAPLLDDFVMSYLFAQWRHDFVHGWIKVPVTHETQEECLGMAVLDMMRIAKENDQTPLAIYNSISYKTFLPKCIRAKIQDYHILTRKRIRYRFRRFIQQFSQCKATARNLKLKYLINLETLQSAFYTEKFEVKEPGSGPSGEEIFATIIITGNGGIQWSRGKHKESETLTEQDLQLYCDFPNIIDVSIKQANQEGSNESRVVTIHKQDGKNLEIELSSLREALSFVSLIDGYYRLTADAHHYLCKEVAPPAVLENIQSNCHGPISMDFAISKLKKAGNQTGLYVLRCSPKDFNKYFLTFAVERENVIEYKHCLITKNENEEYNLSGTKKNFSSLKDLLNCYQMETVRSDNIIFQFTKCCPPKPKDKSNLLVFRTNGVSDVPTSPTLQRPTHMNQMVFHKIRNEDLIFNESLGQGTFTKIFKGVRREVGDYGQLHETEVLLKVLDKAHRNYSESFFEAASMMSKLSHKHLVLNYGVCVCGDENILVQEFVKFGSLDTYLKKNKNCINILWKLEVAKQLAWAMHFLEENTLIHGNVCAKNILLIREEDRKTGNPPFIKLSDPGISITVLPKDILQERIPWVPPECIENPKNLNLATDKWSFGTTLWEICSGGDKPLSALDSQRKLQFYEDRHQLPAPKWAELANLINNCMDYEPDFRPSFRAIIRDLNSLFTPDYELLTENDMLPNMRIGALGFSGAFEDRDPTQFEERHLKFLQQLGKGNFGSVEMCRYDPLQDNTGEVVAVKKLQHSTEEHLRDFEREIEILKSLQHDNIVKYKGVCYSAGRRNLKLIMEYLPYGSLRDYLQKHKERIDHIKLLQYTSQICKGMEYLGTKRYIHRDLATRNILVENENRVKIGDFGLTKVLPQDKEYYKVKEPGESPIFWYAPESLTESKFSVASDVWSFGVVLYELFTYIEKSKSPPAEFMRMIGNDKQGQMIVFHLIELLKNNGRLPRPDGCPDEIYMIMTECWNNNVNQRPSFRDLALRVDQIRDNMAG", "experiment": "LanthaScreen JAK biochemical assay, JAK2", "procedure": "A panel of four LanthaScreen JAK biochemical assays (JAK1, 2, 3 and Tyk2) were carried in a common kinase reaction buffer (50 mM HEPES, pH 7.5, 0.01% Brij-35, 10 mM MgCl2, and 1 mM EGTA). Recombinant GST-tagged JAK enzymes and a GFP-tagged STAT1 peptide substrate were obtained from Life Technologies."}, "[1]": {"system": "IL-4 stimulated STAT6 phosphorylation in CD3+ T cells in human PBMCs", "experiment": "Cellular JAK potency assay: inhibition of IL-4 stimulated pSTAT6 in CD3+ T cells", "assay_type": "cell-based", "conditions": "T-cell", "procedure": "The potency of test compounds for inhibition of interleukin-4 (IL-4) stimulated STAT6 phosphorylation was measured in CD3-positive (CD3+) T cells in human peripheral blood mononuclear cells (PBMCs) isolated from human whole blood (Stanford Blood Center) using flow cytometry. Because IL-4 signals through JAK, this assay provides a measure of JAK cellular potency.\nCD3+ T cells were identified using a […] (PE) conjugated anti-CD3 antibody (Clone UCHT1, BD Biosciences), while an Alexa Fluor 647 conjugated anti-pSTAT6 antibody (pY641, Clone 18/P, BD Biosciences) was used to detect STAT6 phosphorylation.\nHuman peripheral blood mononuclear cells (PBMC) were isolated from human whole blood of healthy donors using a ficoll gradient. […] After incubation, cells were washed twice in FACS buffer before being analyzed using a LSRII flow cytometer (BD Biosciences).\nTo determine the inhibitory potency of test compounds in response to IL-4, the median fluorescent intensity (MFI) of pSTAT6 was measured in CD3+ T cells. IC50 values were determined from analysis of the inhibition curves of MFI vs compound concentration. Data are expressed as pIC50 (negative decadic logarithm IC50) values (mean±standard deviation)."}}, "note": "Like-named read-outs stand apart in the source and are kept apart here.", "data": [{"compound": "COc1cc(Nc2cc(CO)[nH]n2)nc(N(C)[C@@H]2C[C@H]3CCC[C@@H](C2)N3S(=O)(=O)N2CC(C#N)C2)n1", "note": "[Example 2, 1-(((1R,3s,5S)-3-((4-((5-(Hydroxymethyl)-1H-pyrazol-3-yl)amino)-6-methoxypyrimidin-2-yl)(methyl)amino)-9-azabicyclo[3.3.1]nonan-9-yl)sulfonyl)azetidine-3-carbonitrile]", "values": [{"measurement": "JAK 2 (pKi)", "setting": "JAK2", "value": "A (A represents a pKi value≥10 (Ki≤0.1 nM))"}, {"measurement": "IC50", "setting": "[1]; IL-4 stimulated pSTAT6, CD3+ T cells, read-out: pIC50 value (converted)", "value": "~50.1", "unit": "nM"}, {"measurement": "IC50", "setting": "[1]; cellular assay, Assay 4, read-out: IC50 for inhibition of IL-4", "value": "≤ 50", "unit": "nM"}]}]}
